Source: patent publication US4883758A, “Biologically pure culture of the microorganism Streptomycas tropolofaciens used for producing 3,7-dihydroxytropolone and antitumor use” (priority 1989, dated 1989)
Where two headings read alike, the source gives them in different places.

Experiments:
[1] = system: Melanoma B16; assay: In vivo antitumor activity against melanoma B16 in mice, Exp. 1; design: species or system male BDF1 mice; murine tumor; conditions: for T/C: MST
Method: (§1) BU-3129T (3,7-dihydroxytropolone) and its analogs were tested for in vitro cytotoxicity against logarithmically growing murine melanoma tumor cells in liquid culture. B16-F10 cells (4×10^4 cells) in the enriched MEM (Minimum essential medium (Eagle's)) containing test material solution were planted into wells of 96-well microtiter plates and incubated at 37° C., with 5% CO2 under high humidity for 72 hours. After staining with neutral red, cytotoxicity of test material was determined colorimetrically. The inhibitory effects on macromolecule biosynthesis were examined in cultured L1210 leukemia cells. L1210 cells (5×10^5 cells) were exposed to radioactive precursors (^3 H-thymidine, ^14 C-uridine and ^3 H-leucine) for 60 min after the treatment with test material for 15 min. The incorporated radioactivities into acid-insoluble fractions were measured by using a liquid scintillation counter. The in vivo antitumor activity of BU-3129T was determined in male BDF1 mice against leukemia P388 and melanoma B16. Leukemia P388 and melanoma B 16 were inoculated by the intraperitoneal injection at 10^6 cells and 0.5 ml of a 10% tumor brei per mouse, respectively. Test material was administered to mice intraperitoneally once daily through 1 to 9 days after tumor implantation. Tropolone and mitomycin C were comparatively tested in the experiments.

[2] = Kirst, et. al., J. Antibiotics 1982; cited from earlier work
[3] = system: Leukemia P388; assay type: in vivo, male BDF1 mice; murine tumor; conditions: for T/C: MST
Method: as §1

[4] = system: B16-F10 murine melanoma tumor cells; assay: In vitro cytotoxicity against B16-F10 melanoma cells (72 h, neutral red); assay type: cell-based
Method: as §1

[5] = system: Melanoma B16; assay: In vivo antitumor activity against melanoma B16 in mice, Exp. 2; design: species or system male BDF1 mice; murine tumor; conditions: for Average weight change on day 5: B16 Exp. 2, qd 1→9, ip
Method: as §1

[6] = B16 Exp. 1, 0.16 mg/kg/day, qd 1→9, ip
[7] = B16 Exp. 1, 0.31 mg/kg/day, qd 1→9, ip
[8] = B16 Exp. 1, 0.63 mg/kg/day, qd 1→9, ip
[9] = B16 Exp. 1, 1.3 mg/kg/day, qd 1→9, ip
[10] = B16 Exp. 1, 2.5 mg/kg/day, qd 1→9, ip
[11] = B16 Exp. 1, 0.1 mg/kg/day, qd 1→9, ip
[12] = B16 Exp. 1, 0.3 mg/kg/day, qd 1→9, ip
[13] = B16 Exp. 1, 1.0 mg/kg/day, qd 1→9, ip
[14] = P388, 0.63 mg/kg/day, qd 1→9, ip

## O=c1c(O)cccc(O)c1O [BU-3129T, 3,7-dihydroxytropolone]
[1]; [6]
  Average weight change on day 5: +0.4 g
  MST: 16.0 days
  T/C: 100%
[1]; [7]
  Average weight change on day 5: +1.2 g
  MST: 18.0 days
  T/C: 113%
[1]; [8]
  Average weight change on day 5: +1.0 g
  MST: 23.0 days
  T/C: 144%
[1]; [9]
  Average weight change on day 5: +0.4 g
  MST: 29.0 days
  T/C: 181%
[1]; [10]
  Average weight change on day 5: -0.8 g
  MST: 12.0 days
  T/C: 75%
[1]; B16 Exp. 1, 5.0 mg/kg/day, qd 1→9, ip
  tox: tox
[1]; mice bearing murine tumors, ip
  Antitumor activity against melanoma B16 (in words): significant antitumor activity
[1]; overall conclusion from the data
  Inhibitory action against mammalian malignant tumors (in words): marked inhibitory action
[2]
  Antimicrobial activity: possesses antimicrobial activity
[3]; mice bearing murine tumors, ip
  Antitumor activity against leukemia P388 (in words): no activity
[4]
  Potency in the in vitro cytotoxicity test: most potent

## CO[C@@]12[C@H](COC(N)=O)C3=C(C(=O)C(C)=C(N)C3=O)N1C[C@@H]1N[C@@H]12 [Mitomycin C, reference compound]
[1]; [11]
  Average weight change on day 5: +1.0 g
  T/C: 100%
[1]; [12]
  Average weight change on day 5: +0.4 g
  MST: 22.0 days
  T/C: 128%
[1]; [13]
  Average weight change on day 5: +0.6 g
  MST: 27.0 days
  T/C: 169%
[3]; [14]
  MST: 21.0 days
  T/C: 200%
[3]; P388, 0.08 mg/kg/day, qd 1→9, ip
  T/C: 114%
[3]; P388, 0.16 mg/kg/day, qd 1→9, ip
  T/C: 143%
[3]; P388, 0.31 mg/kg/day, qd 1→9, ip
  T/C: 152%
[3]; P388, 1.3 mg/kg/day, qd 1→9, ip
  T/C: 200%

## O=c1cccccc1O [Tropolone]
[5]; 1.0 mg/kg/day
  Average weight change on day 5: +2.3 g
[5]; 3.0 mg/kg/day
  Average weight change on day 5: +2.5 g
[5]; 10 mg/kg/day
  Average weight change on day 5: +3.3 g
[5]; 30 mg/kg/day
  Average weight change on day 5: +2.0 g
[5]; at the doses tested
  Antitumor activity against melanoma B16 (in words): did not show any activity
